What was measured:
cleaved (75 kDa) CAPN1 = assay: Immunoblot of active CAPN1 in ISO/Ca2+-treated ES-CMs (chronic CAPN1 inhibition); format: cell-based, mouse; details: Dsg2^mut/mut ES-CMs, 7 days 50 μM ISO/1 μM Ca2+, calpeptin pretreatment
Method: (§1) Mouse embryonic stem cells (ESs) were maintained and differentiated, and the absence of mycoplasma contamination was confirmed prior to experimental studies. Briefly, mouse ESs from both WT and Dsg2^mut/mut mice were derived from E3.5 embryos and maintained on gelatin-coated dishes in maintenance medium (Glasgow minimum essential medium supplemented with 10% fetal bovine serum and 3 μM Chir99021 and 1 μM PD98059 or 1000 U/ml ESGRO; Millipore), Glutamax, sodium pyruvate, and MEM non-essential amino acids (Thermo Fisher Scientific). For cardiomyocyte (CM) differentiation, ESs were plated in IMDM/Ham's F12 (Cellgro, at 3:1) supplemented with N2, B27, penicillin/streptomycin, 2 mM GlutaMAX, 0.05% BSA, 5 ng/ml L-ascorbic acid (Sigma-Aldrich), and α-monothioglycerol (MTG; Sigma-Aldrich) at a final density of 100,000 cells/ml to allow spheroid formation. After 48 hours, embryoid bodies were collected and transferred to ultra-low attachment plastic surface and induced for 40 hours with Activin A and Bmp4 (R&D Systems). Cells were then dissociated and plated as monolayers for 48 hours in the presence of 10 μM XAV to allow cardiomyocyte differentiation. The resulting ES-CMs were cultured 45 days before experimental procedures were performed.

CAPN1 = biological target: T1, CAPN1 (Mus musculus, UniProt O35350); assay: Calpain activity assay (Suc-LLVY-AMC cleavage) in HL-1 cells under Ca2+ overload; format: cell-based; details: Calcimycin 1 μM in HBS KV medium, dose-dependent response
T1 construct: endogenous in cells; host or cells: HL-1 cardiomyocytes
T1 sequence (O35350 1-713): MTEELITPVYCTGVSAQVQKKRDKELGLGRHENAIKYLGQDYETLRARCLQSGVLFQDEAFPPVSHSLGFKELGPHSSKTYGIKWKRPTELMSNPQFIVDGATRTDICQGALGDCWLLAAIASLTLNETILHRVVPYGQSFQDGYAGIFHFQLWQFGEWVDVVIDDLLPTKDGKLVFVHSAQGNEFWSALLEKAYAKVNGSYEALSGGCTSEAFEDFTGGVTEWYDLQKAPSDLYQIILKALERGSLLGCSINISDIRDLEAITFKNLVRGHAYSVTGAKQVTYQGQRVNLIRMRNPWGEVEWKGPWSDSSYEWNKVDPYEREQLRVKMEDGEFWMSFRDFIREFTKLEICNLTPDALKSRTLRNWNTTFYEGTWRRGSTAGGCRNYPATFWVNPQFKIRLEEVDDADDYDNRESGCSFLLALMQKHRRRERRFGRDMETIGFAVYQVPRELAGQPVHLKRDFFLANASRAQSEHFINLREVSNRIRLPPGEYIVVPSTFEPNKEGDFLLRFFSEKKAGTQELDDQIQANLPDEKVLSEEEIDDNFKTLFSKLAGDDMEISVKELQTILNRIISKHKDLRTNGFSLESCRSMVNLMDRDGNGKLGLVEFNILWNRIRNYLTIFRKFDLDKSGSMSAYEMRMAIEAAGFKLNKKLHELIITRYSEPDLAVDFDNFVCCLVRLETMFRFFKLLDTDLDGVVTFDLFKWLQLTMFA
T1 sequence (O88456 1-268 partner): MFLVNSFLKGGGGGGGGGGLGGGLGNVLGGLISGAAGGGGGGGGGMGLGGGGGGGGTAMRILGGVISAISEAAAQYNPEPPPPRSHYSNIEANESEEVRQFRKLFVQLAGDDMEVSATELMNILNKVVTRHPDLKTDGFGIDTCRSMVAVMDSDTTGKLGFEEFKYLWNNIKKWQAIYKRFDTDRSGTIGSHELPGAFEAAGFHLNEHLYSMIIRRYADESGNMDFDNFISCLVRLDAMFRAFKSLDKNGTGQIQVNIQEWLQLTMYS
Method: Calcium (Ca^2+) Overload Protocol: Rapid and sustained intracellular Ca^2+ overload was obtained by adding the Ca^2+-ionophore, calcimycin (1 μM), to HL-1 cells incubated for 10 min in HBS KV medium (1.26 mM CaCl2, 0.81 mM MgSO4, 0.44 mM KH2PO4, 142 mM KCl, 0.27 mM K2HPO4, 5.55 mM D-glucose, 1 mM Na3VO4, 20 mM Hepes pH 7.4). To monitor intracellular Ca^2+ variations, HL-1 cells were loaded with 5 μM Fluo-4 FF AM (Molecular Probes) in HBS Na (Sigma) for 30 min before the media was replaced with HBS KV. […] Calpain (CAPN) Activity Assay: […] HL-1 cells were grown in 24-well plates and incubated for 30 min in HBS Na (Sigma) with 25 μM Suc-LLVY-AMC (SEQ ID NO: 81) and 0.01% pluronic F127 (Molecular Probes) before treatment protocols. […] CAPN activity was inhibited via the addition of either calpeptin (Tocris) or PD150606 (Calbiochem) in the incubation medium.

HL-1 cells = assay: Mitochondrial membrane potential (JC-1) assay in HL-1 cells; format: cell-based, mouse; details: Calcimycin 1 μM in HBS KV medium
Method: Calcium (Ca^2+) Overload Protocol: Rapid and sustained intracellular Ca^2+ overload was obtained by adding the Ca^2+-ionophore, calcimycin (1 μM), to HL-1 cells incubated for 10 min in HBS KV medium (1.26 mM CaCl2, 0.81 mM MgSO4, 0.44 mM KH2PO4, 142 mM KCl, 0.27 mM K2HPO4, 5.55 mM D-glucose, 1 mM Na3VO4, 20 mM Hepes pH 7.4). To monitor intracellular Ca^2+ variations, HL-1 cells were loaded with 5 μM Fluo-4 FF AM (Molecular Probes) in HBS Na (Sigma) for 30 min before the media was replaced with HBS KV. […] Mitochondrial Membrane Potential (MMP) Assay: MMP was determined using the potentiometric probe, JC-1. JC-1 (Molecular Probes) is a cationic carbocyanine dye that selectively accumulates in polarized mitochondria, where it forms red fluorescent aggregates (excitation 485/emission 590 nm). Upon mitochondrial depolarization, JC-1 is released into the cytosol, whereas a monomer emits green fluorescence (excitation 485 nm/emission 520 nm). Therefore, MMP variations were monitored as the ratio of fluorescent emissions at 590/520 nm using a fluorimeter plate reader (Fluoroskan Ascent Labsystem). HL-1 cells were incubated with JC-1 (1.5 μM) for 30 min at 37° C. in HBS Na before treatment protocols.

[1] = system: truncated AIF (tAIF, 57 kDa); assay: Immunoblot of truncated AIF in ISO/Ca2+-treated ES-CMs (chronic CAPN1 inhibition); format: cell-based, mouse; details: Dsg2^mut/mut ES-CMs, 7 days 50 μM ISO/1 μM Ca2+, calpeptin pretreatment
Method: as §1

reduction in Ca2+ overload-induced CAPN1 substrate hydrolysis (CAPN1): ~75%
SMILES: CCCC[C@@H](C=O)NC(=O)[C@H](CC(C)C)NC(=O)OCc1ccccc1 [calpeptin]
levels of cleaved (75 kDa) CAPN1 (cleaved (75 kDa) CAPN1): significantly lowered | Ca2+ overload-induced decrease in mitochondrial membrane potential (MMP) (HL-1 cells): significantly attenuated | levels of tAIF (57 kDa) [1]: significantly lowered

Reference: patent US20240109937A1, “BINDING PEPTIDES AND USES THEREOF” (The Johns Hopkins University, priority 2021, published 2024)
